Our source for the IC50 values is patent publication US20120020915A1, “Compounds and Methods for Treating Cancer and Diseases of the Central Nervous System” (QUEENS UNIVERSITY AT KINGSTON, priority 2007, published 2012).

For assay [1], the target named is T1, HO-2 (rat brain) (Rattus norvegicus, UniProt P23711).
T1 construct: brain microsomes were used as a source of HO-2; from tissue; host or cells: brain microsomal fraction of adult male Sprague-Dawley rats
T1 sequence (P23711 1-315): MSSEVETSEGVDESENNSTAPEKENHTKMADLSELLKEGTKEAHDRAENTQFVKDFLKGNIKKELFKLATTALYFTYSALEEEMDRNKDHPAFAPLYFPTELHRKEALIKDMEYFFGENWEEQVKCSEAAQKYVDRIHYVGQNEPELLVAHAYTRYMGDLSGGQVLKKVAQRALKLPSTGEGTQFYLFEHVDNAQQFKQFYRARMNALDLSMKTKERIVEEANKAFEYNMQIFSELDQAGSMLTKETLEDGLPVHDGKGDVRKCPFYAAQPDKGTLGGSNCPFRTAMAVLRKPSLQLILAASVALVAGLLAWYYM
The assay is described as follows: HO enzymatic activity, rat brain microsomal fraction (CO formation from methemalbumin). Format: biochemical. How it is done:
(§1) Incubations for HO activity analysis were done under conditions for which the rate of CO formation (pmol CO×min^−1×mg protein^−1) was linear with respect to time and microsomal protein concentration. Briefly, reaction mixtures (150 μL) consisting of 100 mM phosphate buffer (pH 7.4), 50 μM methemalbumin, and 1 mg/mL protein were pre-incubated with the inhibitors at final concentrations ranging from 0.1-100 μM for 10 minutes at 37° C. Reactions were initiated by adding NADPH at a final concentration of 1 mM and incubations were performed for an additional 15 minutes at 37° C.
(§2) Incubations for HO activity analysis were done under conditions for which the rate of CO formation (pmol CO/mg protein/minute) was linear with respect to time and microsomal protein concentration. Briefly, reaction mixtures (150 μL) consisting of 100 mM phosphate buffer (pH 7.4), 50 μM methemalbumin and 1 mg/mL protein were pre-incubated with the vehicle (ethanol or water in which the inhibitors were dissolved), or inhibitors at final concentrations ranging from 0.1-1000 μM for 10 minutes at 37° C. Reactions were initiated by adding β-NADPH at a final concentration of 1 mM and incubations were carried out for an additional 15 minutes at 37° C. Reactions were stopped by instantly freezing the reaction mixture on pulverized dry ice and CO formation was measured by gas chromatography using a TA 3000R Process Gas Analyzer (Trace Analytical/Ametek, Newark, Del., USA).
(§3) The values on the abscissa represent the decimal logarithm of the inhibitor's concentration (in μM), whereas the values of the activity on the ordinate are expressed as a percentage of the control experiments without inhibitor.
(§4) The IC50 values for the replicate experiments were employed to generate the reported standard deviation value.

The target of assay [2] is T2, HO-1 (rat spleen) (Rattus norvegicus, UniProt P06762).
T2 construct: Spleen microsomes were used as a source of HO-1; from tissue; host or cells: spleen microsomal fraction of adult male Sprague-Dawley rats
T2 sequence (P06762 1-289): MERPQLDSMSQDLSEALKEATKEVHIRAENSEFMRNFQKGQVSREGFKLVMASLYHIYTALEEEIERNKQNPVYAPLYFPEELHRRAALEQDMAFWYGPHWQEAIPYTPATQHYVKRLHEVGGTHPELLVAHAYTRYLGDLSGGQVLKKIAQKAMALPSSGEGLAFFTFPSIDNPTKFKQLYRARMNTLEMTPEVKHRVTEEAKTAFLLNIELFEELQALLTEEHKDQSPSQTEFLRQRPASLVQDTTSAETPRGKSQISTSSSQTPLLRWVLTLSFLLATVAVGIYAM
In words: HO enzymatic activity, rat spleen microsomal fraction (CO formation from methemalbumin). Format: biochemical. The procedure:
as §1, §2, §3, §4

Where [3] appears, read: IC50 HO-2 (rat brain)/μM), CO formation from methemalbumin, mean ± SD of replicate experiments.
[4] abbreviates: IC50 HO-1 (rat spleen/μM), CO formation from methemalbumin, mean ± SD of replicate experiments.
Where [5] appears, read: CO formation from methemalbumin, mean ± SD of replicate experiments, read-out: IC50 HO-2 (rat brain)/μM).
Where [6] appears, read: CO formation from methemalbumin, mean ± SD of replicate experiments, read-out: IC50 HO-1 (rat spleen/μM).
The mark [7] stands for this setting: IC50 HO-2 (rat brain)/μM), average ± SD of replicate experiments.

Where a name gives a salt, the structure may show the parent alone. Read-outs that look alike come from different tables or passages of the source.

`Nc1ccccc1SC[C@@H]1CO[C@](CCc2ccc(Cl)cc2)(Cn2ccnc2)O1` [QC-3, (2S,4S)-2-[2-(4-chlorophenyl)ethyl]-2-[(1H-imidazol-1-yl)methyl]-4-[{(2-aminophenyl)thio}methyl]-1,3-dioxolane dihydrochloride] registered an IC50 in assay [1] (setting [3]) of 55 ± 26 µM.
Take `Cc1ccc(S(=O)(=O)OC[C@@H]2CO[C@](CCc3ccc(Cl)cc3)(Cn3ccnc3)O2)cc1` [QC-4, (2S,4S)-2-[2-(4-chlorophenyl)ethyl]-2-[(1H-imidazol-1-yl)methyl]-4-[(p-toluenesulfonyloxy)methyl]-1,3-dioxolane dihydrochloride]: the values for the IC50 in assay [1] (setting [3]) and in assay [2] (setting [4]) were 48 ± 6 µM and 19 ± 9 µM, respectively.
For `Cc1ccc(S(=O)(=O)OC[C@@H]2CO[C@](CCc3ccc(Cl)cc3)(Cn3ccnc3)O2)cc1` [QC-6, (2S,4S)-2-[2-(4-chlorophenyl)ethyl]-2-[(1H-imidazol-1-yl)methyl]-4-[(p-toluenesulfonyloxy)methyl]-1,3-dioxolane], the IC50 in assay [1] (setting [3]) is 23 ± 6 µM; in assay [2] (setting [4]), 21 ± 2 µM.
With `Nc1cccc(SC[C@@H]2CO[C@](CCc3ccc(Cl)cc3)(Cn3ccnc3)O2)c1` [QC-7, (2S,4S)-2-[2-(4-chlorophenyl)ethyl]-2-[(1H-imidazol-1-yl)methyl]-4-[{(3-aminophenyl)thio}methyl]-1,3-dioxolane dihydrochloride], the IC50 in assay [1] (setting [3]) is 21 ± 1 µM; in assay [2] (setting [4]) it was 1.5 ± 0.1 µM.
`COc1ccc(OC[C@H]2CO[C@](CCc3ccc(Cl)cc3)(Cn3ccnc3)O2)cc1` [QC-8, (2S,4S)-2-[2-(4-chlorophenyl)ethyl]-2-[(1H-imidazol-1-yl)methyl]-4-[(4-methoxyphenyloxy)methyl]-1,3-dioxolane hydrochloride]: the IC50 in assay [1] (setting [5]) is 29 ± 6 µM; in assay [2] (setting [6]), 28 ± 15 µM.
As for `O=C(CCc1ccc(Cl)cc1)Cn1ccnc1` [QC-9, 4-(4-chlorophenyl)-1-(1H-imidazol-1-yl)-2-butanone hydrochloride], in assay [1] (setting [5]), the IC50 is 43 ± 5 µM.
On to `Nc1cccc(SC[C@H]2CO[C@](CCc3ccc(Cl)cc3)(Cn3ccnc3)O2)c1` [QC-20, (2S,4R)-2-[2-(4-chlorophenyl)ethyl]-2-[(1H-imidazol-1-yl)methyl]-4-[{(3-aminophenyl)thio}methyl]-1,3-dioxolane hydrochloride], for which, in assay [2] (setting [4]), the IC50 worked out at 5.2 ± 0.4 µM.
For the compound `Cc1ccc(S(=O)(=O)OC[C@H]2CO[C@@](CCc3ccc(Cl)cc3)(Cn3ccnc3)O2)cc1` [QC-21, (2R,4R)-2-[2-(4-chlorophenyl)ethyl]-2-[(1H-imidazol-1-yl)methyl]-4-[(p-toluenesulfonyloxy)methyl]-1,3-dioxolane], the IC50 in assay [1] (setting [3]) was 23 ± 10 µM; in assay [2] (setting [4]) it was 0.8 ± 0.3 µM.
In the case of `Nc1ccccc1SC[C@H]1CO[C@@](CCc2ccc(Cl)cc2)(Cn2ccnc2)O1` [QC-22, (2R,4R)-2-[2-(4-chlorophenyl)ethyl]-2-[(1H-imidazol-1-yl)methyl]-4-[{(2-aminophenyl)thio}methyl]-1,3-dioxolane dihydrochloride], in assay [2] (setting [4]), the IC50 is 87 ± 24 µM.
Consider `COc1cccc(-c2nnn[nH]2)c1` [QC-28, 5-(3-methoxyphenyl)-1H-tetrazole], for which the IC50 in assay [1] (setting [5]) and in assay [2] (setting [6]) was greater than 100 µM each time.
On to `Nc1cc(Cl)ccc1-c1nnn[nH]1` [QC-29, 5-(2-amino-4-chlorophenyl)-1H-tetrazole], for which the IC50 in assay [1] (setting [5]) and in assay [2] (setting [6]) was greater than 100 µM each time.
Regarding `CCC(O)Cn1ccnc1` (stereo not drawn) [QC-31, 1-(1H-imidazol-1-yl)butan-2-ol hydrochloride], the IC50 in assay [1] (setting [3]) was greater than 100 µM; in assay [2] (setting [4]) it was 131 ± 38 µM.
The like results for `COc1ccc(CCC(O)Cn2ccnc2)cc1` (stereo not drawn) [QC-33, 4-(4-methoxyphenyl)-1-(1H-imidazol-1-yl)butan-2-ol hydrochloride] were, in that order, 6 ± 4 µM and 0.7 ± 0.1 µM.
Turning to `CCC(COC(C)=O)n1ccnc1` (stereo not drawn) [QC-36, 1-acetoxy-2-(1H-imidazol-1-yl)-butane], the IC50 in assay [1] (setting [5]) and in assay [2] (setting [6]) was greater than 100 µM in each case.
Turning to `Fc1ccc(COC(CCc2ccc(Cl)cc2)Cn2ccnc2)cc1` (stereo not drawn) [QC-37, 4-(4-Chlorophenyl)-2-(4-fluorobenzyloxy)-1-(1H-imidazol-1-yl)butane hydrochloride], the IC50 was 1 ± 0.01 µM in assay [1] (setting [5]) and 0.9 ± 0.3 µM in assay [2] (setting [6]).
As to `c1c[nH]cn1` [QC-43, Imidazole, reference compound], the IC50 in assay [1] (setting [3]) and in assay [2] (setting [4]) was greater than 100 µM in each case.
With `Cc1ncc[nH]1` [QC-45, 2-methylimidazole, reference compound], the IC50 in assay [1] (setting [5]) and in assay [2] (setting [6]) was greater than 100 µM in each case.
With `Oc1ccc(OC[C@H]2CO[C@@](CCc3ccc(Cl)cc3)(Cn3ccnc3)O2)cc1` [QC-46, (2R,4S)-4-{2-[2-(4-Chlorophenyl)ethyl]-2-imidazol-1-ylmethyl-[1,3]dioxolan-4-ylmethoxy}phenol hydrochloride], the IC50 in assay [1] (setting [5]) was determined as 7.1 ± 0.7 µM; in assay [2] (setting [6]) it was 1.8 ± 0.5 µM.
`O=C(CCc1ccc(Br)cc1)Cn1ccnc1` [QC-53, 4-(4-Bromophenyl)-1-(1H-imidazol-1-yl)-2-butanone hydrochloride]: in assay [1] (setting [3]), the IC50 was 10 ± 5 µM.
For the compound `O=C(CCc1ccc(F)cc1)Cn1ccnc1` [QC-54, 4-(4-Fluorophenyl)-1-(1H-imidazol-1-yl)-2-butanone hydrochloride], the IC50 in assay [1] (setting [3]) was 2 ± 0.2 µM.
As for `Fc1ccc(CCC2(Cn3ccnc3)OCCO2)cc1` [QC-55, 1-((2-(2-(4-Fluorophenyl)ethyl)-1,3-dioxolan-2-yl)methyl)-1H-imidazole hydrochloride], in assay [2] (setting [4]), the IC50 was determined as 4 ± 1 µM.
In the case of `O=C(CBr)CCc1ccc(Br)cc1` [QC-59, 1-bromo-4-(4-bromophenyl)butan-2-one], the results for the IC50 in assay [1] (setting [5]) and in assay [2] (setting [6]) were 125 ± 22 µM and 42 ± 5 µM, respectively.
`O=C(CCc1ccc(Br)cc1)Cn1cncn1` [QC-64, 4-(4-bromophenyl)-1-[1,2,4]triazol-1-yl-butan-2-one hydrochloride] displayed an IC50 in assay [1] (setting [3]) of 3 ± 2 µM.
In the case of `O=C(CCc1ccccc1)Cn1cncn1` [QC-86, 4-phenyl-1-[1,2,4]triazol-1-yl-butan-2-one hydrochloride], the IC50 in assay [1] (setting [5]) turned out to be 34 ± 3 µM.
With `O=C(CCc1ccccc1)Cn1cccn1` [QC-87, 4-phenyl-1-pyrazol-1-yl-butan-2-one hydrochloride], the IC50 in assay [2] (setting [4]) was greater than 100 µM.
As for `OC(Cn1cncn1)(Cn1cncn1)c1ccc(F)cc1F` [QC-90, Fluconazole, reference compound], the IC50 in assay [1] (setting [5]) is greater than 100 µM.
As for `O=C(CCc1ccccc1)Cn1ccnn1` [QC-91, 4-phenyl-1-(1H-[1,2,3]triazol-1-yl)butan-2-one], the IC50 in assay [2] (setting [6]) came to 89 ± 1 µM.
For the compound `O=C(CCc1ccccc1)Cn1nccn1` [QC-101, 4-phenyl-1-[1,2,3]triazol-2-yl-butan-2-one], in assay [2] (setting [6]), the IC50 is greater than 100 µM.
As for `c1ccc(CCC2(Cn3cncn3)OCCO2)cc1` [QC-104, 2-(2-phenethyl)-2-{(1H-[1,2,4]triazol-1-yl)methyl}-1,3-dioxolane hydrochloride], the IC50 in assay [2] (setting [6]) was determined as 14 ± 3 µM.
Consider `Cl.Clc1ccc(CC[C@@]2(Cn3ccnc3)OC[C@@H](COc3ccc(-c4ccccc4)cc3)O2)cc1` [QC-129, (2R,4S)-1-{4-Biphenyl-4-yloxymethyl)-2-[2-(4-chlorophenyl)ethyl]-[1,3]dioxolan-2-ylmethyl}-1H-imidazole hydrochloride], for which the IC50 in assay [1] (setting [5]) worked out at 43 ± 3 µM.
With `CC(C)(C(=O)c1ccccc1)n1ccnc1` [QC-187, 2-Imidazol-1-yl-2-methyl-1-phenyl-propan-1-one], in assay [2] (IC50 HO-1 (rat spleen/μM), average ± SD of replicate experiments), the IC50 is greater than 100 µM.
Consider `O=C(Cn1ccnc1)c1ccc(Cl)c(Cl)c1` [QC-189, 1-(3,4-Dichlorophenyl)-2-imidazol-1-yl-ethanone], for which, in assay [1] (setting [7]), the IC50 was 4.7 ± 0.7 µM.
On the same count and under the same terms, next, `O=C(/C=C/c1ccccc1)CCn1ccnc1` [QC-223, 5-(1H-Imidazol-1-yl)-1-phenyl-pent-1-en-3-one hydrochloride]: 31 ± 12 µM.
